In patent US8314077B2 (priority 1996, dated 2012):
Where two headings read alike, the source gives them in different places.

Experiments:
[1] = in vivo; cited from earlier work
[2] = system: CNS SF-539; experiment: cells; assay type: cell-based; details: for TGI: concentration at which PG is 0, CNS SF-539
Method: (§1) Conjugates 1 and 2 were sent to the United States National Cancer Institute (NCI) for screening in the NCI's anticancer screening program. The conjugates were provided in ethanol (approximately 40 mg analog/2 ml ethanol). […] Instructions were provided to store at 4° C. and to open the vials only when ready for immediate experimental use. Instructions also were provided to use the ethanol solutions containing the conjugates directly or to dissolve the analogs further in DMSO (dimethylsulfoxide) at appropriate concentrations, with vortexing if necessary for adequate dispersal.
(§2) The activities of conjugates 1 and 2 were tested against 57 cancer cell lines. […] To understand the data, reference is made to the guides provided by the NCI, excerpted as follows:
(§3) The Calculated Measurement of Effect: Percentage Growth (PG)
(§4) The measured effect of the compound on a cell line is currently calculated according to one or the other of the following two expressions:
(§5) If (Mean ODtext−Mean ODtzero)≧0, then PG=100×(Mean ODtest−Mean ODtzero)/(Mean ODctrl−Mean Odtzero)
(§6) If (Mean ODtest−Mean ODtzero)<0, then PG=100×(Mean ODtest−Mean Odtzero)/Mean Odtzero
(§7) Where: • Mean ODtzero=The average of optical density measurements of SRB-derived color just before exposure of cells to the test compound. • Mean ODtest=The average of optical density measurements of SRB-derived color after 48 hours exposure of cells to the test compound. • Mean ODctrl=The average of optical density measurements of SRB-derived color after 48 hours with no exposure of cells to the test compound.
(§8) Experimental data was collected against each cell line. . . . . Each concentration is expressed as the log10 (molar or μg/ml) . . . . The response parameters GI50, TGI, and LC50 are interpolated values representing the concentrations at which the PG is +50, 0, and −50, respectively. Sometimes these response parameters cannot be obtained by interpolation. If, for instance, all of the PGs in a given row exceed +50, then none of the three parameters can be obtained by interpolation. In such a case, the value given for each response parameter is the highest concentration tested. This practice is extended similarly to the other possible situations where a response parameter cannot be obtained by interpolation.
(§9) The dose-response curve page of the data package is created by plotting the PGs against the log10 of the corresponding concentration for every cell line. The cell line curves are grouped by subpanel. Horizontal lines are provided at the PG values of +50, 0, and −50. The concentrations corresponding to points where the curves cross these lines are the GI50, TGI and LC50, respectively.

[3] = system: CNSSF 268; experiment: cells; assay type: cell-based
Method: as §1, §2, §3, §4, §5, §6, §7, §8, §9

[4] = system: leukemia cancer cell lines; assay type: cell-based; details: six lines for the conjugates, four lines for Taxol; FIGS. 1, 10 and 19
Method: as §1, §2, §3, §4, §5, §6, §7, §8, §9

[5] = system: non-small cell lung cancer lines H522 and H460; assay type: cell-based
Method: as §1, §2, §3, §4, §5, §6, §7, §8, §9

[6] = system: 57 cancer cell lines; assay type: cell-based; details: for potency relative to Taxol: many cell lines tested; for pattern of activity versus Taxol (NCI statistical analysis): statistical analysis designed by the NCI
Method: Conjugates 1 and 2 were sent to the United States National Cancer Institute (NCI) for screening in the NCI's anticancer screening program. The conjugates were provided in ethanol (approximately 40 mg analog/2 ml ethanol). The conjugates were sealed in vials under argon to avoid exposure of the conjugates to oxygen because the conjugates were believed to be sensitive to oxygen. Instructions were provided to store at 4° C. and to open the vials only when ready for immediate experimental use. Instructions also were provided to use the ethanol solutions containing the conjugates directly or to dissolve the analogs further in DMSO (dimethylsulfoxide) at appropriate concentrations, with vortexing if necessary for adequate dispersal.
as §2, §3, §4, §5, §6, §7, §8, §9

[7] = system: MDA-N and MDA-MB-435 breast cancer cell lines; assay type: cell-based; details: all concentrations tested
Method: as §1, §2, §3, §4, §5, §6, §7, §8, §9

[8] = system: CNSU251; assay type: cell-based
Method: as §1, §2, §3, §4, §5, §6, §7, §8, §9

CC(=O)O[C@H]1C(=O)[C@@]2(C)[C@H]([C@H](OC(=O)c3ccccc3)[C@]3(O)C[C@H](OC(=O)[C@H](O)[C@@H](NC(=O)c4ccccc4)c4ccccc4)C(C)=C1C3(C)C)[C@]1(OC(C)=O)CO[C@@H]1C[C@@H]2O [Taxol, paclitaxel, reference compound]
entry into the brain [1]: does not get into the brain | TGI ([2]; 48 hours exposure): −6.95 log10 (molar or μg/ml) | GI50 ([2]; concentration at which PG is +50, 48 hours exposure, CNS SF 539): −7.52 log10 (molar or μg/ml) | GI50 ([3]; concentration at which PG is +50, 48 hours exposure, CNSSF 268): less than −10.0 log10 (molar or μg/ml) | effectiveness against leukemia cell lines [4]: somewhat effective | difference in effectiveness, H522 versus H460, at TGI [5]: about 3 logs | average GI50 across all cell lines tested ([6]; average over cell lines, −10 used where Taxol was active at −10.0): at least −9.19 log10 (molar or μg/ml)

CC/C=C\C/C=C\C/C=C\C/C=C\C/C=C\C/C=C\CCC(=O)O[C@H]1C[C@H]2OC[C@@]2(OC(C)=O)[C@H]2[C@H](OC(=O)c3ccccc3)[C@]3(O)CC(OC(=O)C(O)[C@@H](NC(=O)c4ccccc4)c4ccccc4)C(C)=C([C@@H](OC(C)=O)C(=O)[C@]12C)C3(C)C (stereo partly shown) [conjugate 2]
GI50 ([2]; CNSSF-539, 48 h): 2.75 µM | TGI ([2]; 48 hours exposure): −5.53 log10 (molar or μg/ml) | GI50 ([3]; 48 h): 5.25 µM | relative activity toward MDA-N versus MDA-MB-435 [7]: more effective against MDA-N than MDA-MB-435 | effectiveness at TGI against CNSU251 relative to other CNS cell lines [8]: very effective | effectiveness against leukemia cell lines [4]: not very effective | relative effectiveness against H460 versus H522 at TGI [5]: slightly more effective against H460 than H522 | potency relative to Taxol [6]: one thousand to ten thousand times less potent than Taxol | pattern of activity versus Taxol (NCI statistical analysis) [6]: statistically different

CC/C=C\C/C=C\C/C=C\C/C=C\C/C=C\C/C=C\CCC(=O)OC(C(=O)OC1C[C@@]2(O)[C@@H](OC(=O)c3ccccc3)[C@@H]3[C@]4(OC(C)=O)CO[C@@H]4C[C@H](O)[C@@]3(C)C(=O)[C@H](OC(C)=O)C(=C1C)C2(C)C)[C@@H](NC(=O)c1ccccc1)c1ccccc1 (stereo partly shown) [conjugate 1]
GI50 ([2]; CNSSF-539, concentration at which PG is +50, 48 hours exposure, CNS SF 539, read-out: GI50 (converted)): 0.603 µM | TGI ([2]; 48 hours exposure): −5.13 log10 (molar or μg/ml) | GI50 ([3]; concentration at which PG is +50, 48 hours exposure, CNSSF 268, read-out: GI50 (converted)): 4.37 µM | relative activity toward MDA-N versus MDA-MB-435 [7]: more effective against MDA-N than MDA-MB-435 | effectiveness at TGI against CNSU251 relative to other CNS cell lines [8]: most effective | effectiveness against leukemia cell lines [4]: not very effective | relative effectiveness against H460 versus H522 at TGI [5]: slightly more effective against H460 than H522 | potency relative to Taxol [6]: one thousand to ten thousand times less potent than Taxol | pattern of activity versus Taxol (NCI statistical analysis) [6]: statistically different
